According to ChEMBL document CHEMBL5126545, “Development of inhibitors targeting glycogen synthase kinase-3β for human diseases: Strategies to improve selectivity” (Eur J Med Chem, 2022):
*1 amine or outer side, *2 acyl side, *3 side chain or, on linkers, in order; H or OH if unused. Where a SMILES comes first, the peptide text is derived from it. [ ]: non-standard residue; d: D form. The star is where a group is joined. X1 = C[C@H](N[*:1])C(=O)C1CCC[C@H]1C(=O)[*:2]; Myristoyl = CCCCCCCCCCCCCC(=O)*

Columns and labels:
[1] = target: T1, Glycogen synthase kinase-3 beta (Homo sapiens, UniProt P49841); assay: Inhibition of GSK-3beta (unknown origin)
[2] = target: T1, Glycogen synthase kinase-3 beta; assay: Inhibition of human recombinant GSK3-beta
[3] = target: T1, Glycogen synthase kinase-3 beta; assay: Inhibition of GSK-3beta (unknown origin) using peptide YRRAAVPPSPSLSRHSSPHQ(pS)EDEEE as substrate incubated for 5 to 60 mins by ADP-Glo kinase assay
SH-SY5Y = assay: Neuroprotective activity against human SH-SY5Y cells pretreated for 1 hr followed by muMAbeta42 measured after 72 hrs; type: functional, cell-based
[4] = target: T1, Glycogen synthase kinase-3 beta; assay: Inhibition of GSK-3beta (unknown origin) using biotin-labelled IRS-1 peptide as substrate incubated for 15 mins by ELISA based assay
[5] = Inhibition of GSK-3beta (unknown origin) using GS-1 as substrate incubated for 20 mins
[6] = Inhibition of recombinant rabbit GSK-3beta using peptide YRRAAVPPSPSLSRHSSPHQ(pS)EDEEE as substrate incubated for 10 mins; design: species or system Oryctolagus cuniculus
[7] = Inhibition of CDK-1/cyclin B (unknown origin) using histone H1 as substrate incubated for 20 mins by liquid scintillation counter analysis; design: species or system Homo sapiens
[8] = Inhibition of bovine brain CK2 using stathmin as substrate; design: species or system Bos taurus
[9] = Inhibition of bovine heart PKA using stathmin as substrate incubated for 20 mins by liquid scintillation counter analysis; design: species or system Bos taurus
Protein kinase C (PKC) = assay: Inhibition of rat brain PKC using peptide PANKTPPKSPGEPAK as substrate incubated for 20 mins in presence of phosphatidyl serine
[10] = target: T1, Glycogen synthase kinase-3 beta; assay: Inhibition of GSK3-beta (unknown origin) by Kinase-Glo Max assay kit

T1 sequence (P49841 whole entry): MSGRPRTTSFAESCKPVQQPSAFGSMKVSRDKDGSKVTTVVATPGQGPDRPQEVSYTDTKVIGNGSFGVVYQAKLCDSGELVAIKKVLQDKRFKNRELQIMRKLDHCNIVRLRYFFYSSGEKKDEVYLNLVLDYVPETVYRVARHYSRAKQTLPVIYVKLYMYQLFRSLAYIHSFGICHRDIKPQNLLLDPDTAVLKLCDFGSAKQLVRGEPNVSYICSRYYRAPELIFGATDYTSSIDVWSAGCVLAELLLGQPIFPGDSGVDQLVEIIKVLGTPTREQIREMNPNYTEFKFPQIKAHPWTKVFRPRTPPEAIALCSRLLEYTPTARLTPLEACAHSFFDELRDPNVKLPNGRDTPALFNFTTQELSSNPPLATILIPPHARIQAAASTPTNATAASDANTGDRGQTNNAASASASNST

With Nc1nccc(CNC(=O)c2ccc3c(c2)/C(=C/Cc2cccc(C(=O)O)c2)C(=O)N3)n1 the IC50 [1] was 0.003 µM.
Compound COc1cc2c(c(OC)c1OC)-c1c(cc3c(c1OC)OCO3)C[C@@H](C)[C@@H](C)C2 [KADSURANIN] has an IC50 [2] of 0.081 µM.
In the case of COc1ccc(-c2cc(=O)c3c(OC)c([C@@H]4O[C@H](C(=O)N[C@H](C)C(F)(F)F)[C@@H](O)[C@H](O)[C@H]4O)c(OC)cc3o2)cc1OC, the IC50 [3] is reported as 0.6 µM and the EC50 (SH-SY5Y) is reported as 9 µM.
With O=C1c2ccccc2-c2onc3c(N4CCN(c5ccc(O)cc5)CC4)cc(NCCP(=O)(O)O)c1c23 the IC50 [4] was 1 µM.
With Cc1ccc(C(=O)CCl)s1 the IC50 [1] was > 100 µM.
Work on CCn1sc(=O)n(CC)c1=O yielded an IC50 [5] of 25 µM.
In the case of COc1cc2c(c(OC)c1OC)-c1c(cc3c(c1OC)OCO3)C[C@H](C)[C@H](C)C2 [WUWEIZISU B], the IC50 [2] is reported as 0.073 µM.
CCCCCCCCCCCCCC(=O)NCC(=O)N[C@@H](CCCCN)C(=O)N[C@@H](CCC(=O)O)C(=O)N[C@@H](C)C(=O)C1CCC[C@H]1C(=O)N1CCC[C@H]1C(=O)N[C@@H](C)C(=O)N1CCC[C@H]1C(=O)N1CCC[C@H]1C(=O)N[C@@H](C)C(=O)N[C@@H](CO)C(=O)N1CCC[C@H]1C(=O)N1CCC[C@H]1C(N)=O (some centres undefined) (Myristoyl-GKE[X1]PAPPASPP-NH2) showed an IC50 [6] of 40 µM.
Compound COc1ccc(N2CCN(c3cc(NCCC(=O)O)c4c5c(onc35)-c3ccccc3C4=O)CC2)cc1 has an IC50 [4] of 18 µM.
Compound Cn1cc(C2=C(c3coc4ccccc34)C(=O)NC2=O)c2cc(F)ccc21 has an IC50 [1] of 0.0004 µM.
With Cn1sc(=O)n(Cc2ccccc2)c1=O the IC50 [7] was > 100 µM, the IC50 [8] was > 100 µM and the IC50 [9] was > 100 µM. The IC50 (Protein kinase C (PKC)) was > 100 µM.
Compound COc1ccc(-c2cc(=O)c3c(OC)c([C@@H]4O[C@H](C(=O)N[C@@H](C)C(F)(F)F)[C@@H](O)[C@H](O)[C@H]4O)c(OC)cc3o2)cc1OC has an IC50 [3] of 2 µM.
Work on COc1ccc(-c2cc(=O)c3c(OC)c([C@@H]4O[C@H](C(=O)NC(C)C)[C@@H](O)[C@H](O)[C@H]4O)c(OC)cc3o2)cc1OC yielded an IC50 [3] of 5 µM.
For Cn1sc(=O)n(-c2cccc3ccccc23)c1=O, the IC50 [5] was 3 µM.
In the case of CN(c1ncnc2[nH]c3cc(Cl)ccc3c12)C1CCCN(C(=O)CC#N)C1 (centres undefined), the IC50 [1] is reported as 2 µM.
Compound O=C(O)CCNc1cc(N2CCN(c3ccc(F)cc3)CC2)c2noc3c2c1C(=O)c1ccccc1-3 has an IC50 [4] of 8 µM.
In the case of O=C(CCl)c1cc(Cl)c(Cl)s1, the IC50 [1] is reported as 3 µM.
Work on CC(C)Oc1cccc(-c2ccc3cnc(C(=O)NCC4CCOCC4)n3c2)c1 yielded an IC50 [1] of 0.072 µM.
With CC(C)Oc1cccc(-c2ccc3[nH]nc(C(=O)NCC4CCOCC4)c3c2)c1 the IC50 [1] was 0.004 µM.
For C[S+]([O-])CCCCCCN=C=S (centres undefined), the IC50 [1] was 70 µM.
Compound O=c1cc(-c2ccc(O)c(O)c2)oc2cc(O)c([C@@H]3O[C@H](CO)[C@@H](O)[C@H](O)[C@H]3O)c(O)c12 [ISOORIENTIN] has an EC50 (SH-SY5Y) of 47 µM.
Work on COc1ccc(-c2cc(=O)c3c(OC)c([C@@H]4O[C@H](C(=O)NCc5ccccc5)[C@@H](O)[C@H](O)[C@H]4O)c(OC)cc3o2)cc1OC yielded an IC50 [3] of 16 µM.
Compound O=C(O)c1ccc(N2CCN(c3cc(NCCP(=O)(O)O)c4c5c(onc35)-c3ccccc3C4=O)CC2)cc1 has an IC50 [4] of 1 µM.
FC(F)(F)c1ccc(/C=N/Nc2nnc3n2N=C(c2ccc(Cl)cc2)CS3)cc1 showed an IC50 [10] of 0.883 µM.
For CCn1sc(=O)n(CC)c1=S, the IC50 [5] was 20 µM.
